Test results published in patent publication US10807964B2, “Benzothiophene-based selective estrogen receptor downregulators” (The Board of Trustees of the University of Illinois, priority 2015, dated 2020).
Each block holds one compound with its values, some of them ahead of it.

Experiments:
[1] = tested on: MCF-7:Tam1 tumors; assay: MCF-7:TAM1 xenograft model of endocrine-resistant ER+ breast cancer; type: in vivo, ovariectomized athymic nude mice; conditions: 100 mg/kg daily by oral gavage; GDN-0810 at day 23 after treatment
[2] = Mouse plasma concentration after oral administration; type: in vivo; conditions: average of three mice; for concentration at 4 h: 4 h after oral gavage at 100 mg/kg; for concentration at 0.5 h: 0.5 h after oral gavage at 100 mg/kg
[3] = target: T1, estrogen receptor (Homo sapiens, UniProt P03372); assay: Western blot of estrogen receptor downregulation (FIG. 4); type: cell-based; conditions: 10 nM concentrations
T1 construct: Whole-cell extracts of cultured cells were prepared in lysis buffer; endogenous in cells
T1 sequence (P03372 1-595): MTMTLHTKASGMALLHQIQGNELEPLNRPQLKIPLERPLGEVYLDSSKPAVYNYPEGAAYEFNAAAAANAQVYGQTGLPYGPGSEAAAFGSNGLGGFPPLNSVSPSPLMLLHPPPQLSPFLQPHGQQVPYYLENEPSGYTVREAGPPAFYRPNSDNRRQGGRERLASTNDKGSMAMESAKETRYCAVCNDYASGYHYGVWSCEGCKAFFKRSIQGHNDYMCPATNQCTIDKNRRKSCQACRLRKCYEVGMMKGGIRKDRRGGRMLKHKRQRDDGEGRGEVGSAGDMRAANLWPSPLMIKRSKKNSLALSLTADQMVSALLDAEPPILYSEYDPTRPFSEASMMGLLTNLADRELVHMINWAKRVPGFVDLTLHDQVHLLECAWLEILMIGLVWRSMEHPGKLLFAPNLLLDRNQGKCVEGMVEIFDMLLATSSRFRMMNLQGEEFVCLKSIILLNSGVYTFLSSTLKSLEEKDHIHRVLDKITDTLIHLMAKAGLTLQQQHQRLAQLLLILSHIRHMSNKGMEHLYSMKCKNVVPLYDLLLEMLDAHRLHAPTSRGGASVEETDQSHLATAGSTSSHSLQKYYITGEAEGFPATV
Description: Whole-cell extracts of cultured cells were prepared in lysis buffer (200 mmol/L Tris, 1% Triton X-100, 5 mmol/L; EDTA) with protease and phosphatase inhibitor cocktails (1:50, both from Sigma-Aldrich) after scraping from the culture plates. Protein concentration was measured using the Bradford method (Bio-Rad). Proteins were separated under denaturing conditions and blotted onto nitrocellulose membrane (Bio-Rad) using a wet transfer system (Bio-Rad). Images of blots were acquired on a Bio-Rad ChemiDoc System following incubation with SuperSignal West Dura luminol solution (Thermo Fisher Scientific).

[4] = target: T2, ERα (Homo sapiens, UniProt P03372); assay: ER downregulation/degradation by in-cell western (ICW) in MCF-7:WS8 cells; type: cell-based; conditions: Table 2; read-out: IC50 of ER downregulation from in-cell western blot experiments
T2 construct: MCF-7:WS8 cells were kept in stripped medium 2 days; endogenous in cells; host or cells: MCF-7:WS8
T2 sequence (P03372 1-595): T1 sequence (P03372 1-595)

SMILES: CC/C(=C(\c1ccccc1)c1ccc(OCCN(C)C)cc1)c1ccccc1 [Tamoxifen]
Regression of tumor size (tumor area reduction) [1]: entirely without effect

SMILES: CCc1ccccc1C(=O)c1sc2cc(O)ccc2c1Oc1ccc(/C=C/C(=O)O)cc1 [Compound 3, (E)-3-(4-((2-(2-Ethylbenzoyl)-6-hydroxybenzo[b]thiophen-3-yl)oxy)phenyl) acrylic acid]
Estrogen receptor downregulation, western blot [3]: downregulate the estrogen receptor

SMILES: Cc1ccccc1C(=O)c1sc2cc(O)ccc2c1Oc1ccc(/C=C/C(=O)O)cc1 [Compound 5, (E)-3-(4-((6-Hydroxy-2-(2-methylbenzoyl)benzo[b]thiophen-3-yl)oxy)phenyl) acrylic acid]
Estrogen receptor downregulation, western blot [3]: downregulate the estrogen receptor
concentration at 0.5 h [2]: 5.58 µM
concentration at 4 h [2]: 0.047 µM

SMILES: O=C(O)/C=C/c1ccc(Oc2c(C(=O)c3ccccc3)sc3cc(O)ccc23)cc1 [Compound 4, (E)-3-(4-((2-Benzoyl-6-hydroxybenzo[b]thiophen-3-yl)oxy)phenyl) acrylic acid]
DC50 [4]: 5 nM

SMILES: Cc1cc(F)ccc1C(=O)c1sc2cc(O)ccc2c1Oc1ccc(/C=C/C(=O)O)cc1 [Compound 1, (E)-3-(4-((2-(4-Fluoro-2-methylbenzoyl)-6-hydroxybenzo[b]thiophen-3-yl)oxy)phenyl)acrylic acid]
Estrogen receptor downregulation, western blot [3]: downregulate the estrogen receptor
concentration at 0.5 h [2]: 1.24 µM
concentration at 4 h [2]: 0.145 µM

Results, then the compound that gave them:

concentration at 4 h [2]: 0.858 µM
SMILES: Cc1cc(Cl)cc(C)c1C(=O)c1sc2cc(O)ccc2c1Oc1ccc(/C=C/C(=O)O)cc1 [Compound 21, (E)-3-(4-((2-(4-Chloro-2,6-dimethylbenzoyl)-6-hydroxybenzo[b]thiophen-3-yl)oxy)phenyl) acrylic acid]

Estrogen receptor downregulation, western blot [3]: downregulate the estrogen receptor
SMILES: Cc1ccsc1C(=O)c1sc2cc(O)ccc2c1Oc1ccc(/C=C/C(=O)O)cc1 [Compound 7, (E)-3-(4-((6-Hydroxy-2-(3-methylthiophene-2-carbonyl)benzo[b]thiophen-3-yl)oxy)phenyl) acrylic acid]

Estrogen receptor downregulation, western blot [3]: downregulate the estrogen receptor
SMILES: Cc1ccc(F)cc1C(=O)c1sc2cc(O)ccc2c1Oc1ccc(/C=C/C(=O)O)cc1 [Compound 6, (E)-3-(4-((2-(5-Fluoro-2-methylbenzoyl)-6-hydroxybenzo[b]thiophen-3-yl)oxy)phenyl) acrylic acid]

concentration at 0.5 h [2]: 3.87 µM
concentration at 4 h [2]: 0.432 µM
SMILES: Cc1ccc(C(=O)c2sc3cc(O)ccc3c2Oc2ccc(/C=C/C(=O)O)cc2)c(C)c1 [Compound 12, (E)-3-(4-((2-(2,4-Dimethylbenzoyl)-6-hydroxybenzo[b]thiopben-3-yl)oxy)phenyl) acrylic acid]

concentration at 0.5 h [2]: 9.72 µM
concentration at 4 h [2]: 0.164 µM
SMILES: Cc1cc(F)cc(C)c1C(=O)c1sc2cc(O)ccc2c1Oc1ccc(/C=C/C(=O)O)cc1 [Compound 20, (E)-3-(4-((2-(4-Fluoro-2,6-dimethylbenzoyl)-6-hydroxybenzo[b]thiophen-3-yl)oxy)phenyl) acrylic acid]

concentration at 0.5 h [2]: 1.01 µM
concentration at 4 h [2]: 0.0005 µM
SMILES: Cc1cccc(C)c1C(=O)c1sc2cc(O)ccc2c1Oc1ccc(/C=C/C(=O)O)cc1 [Compound 11, (E)-3-(4-((2-(2,6-Dimethylbenzoyl)-6-hydroxybenzo[b]thiophen-3-yl)oxy)phenyl) acrylic acid]
